Measurements published in patent publication US20130115256A1, “METHODS FOR TREATING OR PREVENTING VASCULAR GRAFT FAILURE” (priority 2010, published 2013).

What was measured:
MKK6 = biological target: T1, MKK6 (Homo sapiens, UniProt P52564); experiment: MKK6 radiometric kinase assay; type: biochemical; conditions: MMI-0100 100 μM; remaining kinase activity
T1 construct: purchased Millipore (KinaseProfiler service)
T1 sequence (P52564 1-334): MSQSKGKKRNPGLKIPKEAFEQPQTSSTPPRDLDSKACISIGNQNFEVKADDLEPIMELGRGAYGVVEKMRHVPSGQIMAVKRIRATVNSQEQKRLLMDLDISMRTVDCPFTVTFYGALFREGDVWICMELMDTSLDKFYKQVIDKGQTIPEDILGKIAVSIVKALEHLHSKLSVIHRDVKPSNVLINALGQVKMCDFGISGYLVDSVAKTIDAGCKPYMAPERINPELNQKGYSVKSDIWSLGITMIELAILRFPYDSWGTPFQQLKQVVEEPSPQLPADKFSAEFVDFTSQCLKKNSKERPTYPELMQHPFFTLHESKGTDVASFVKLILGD
Text: A commercial radiometric assay service was used to test the specificity and potency of MMI-0100 ([…]; SEQ ID NO: 1) by measuring its half maximal inhibitory concentrations (IC50). This quantitative assay measures how much MK2 inhibitor (MMI-0100; […] (SEQ ID NO: 1)) is needed to inhibit 50% of a given biological process or component of a process (i.e., an enzyme, cell, or cell receptor). Specifically, in these assays, a positively charged substrate is phosphorylated with a radiolabeled phosphate group from an ATP if the kinase is not inhibited by an inhibitor peptide. The positively charged substrate then is attracted to a negatively charged filter membrane, quantified with a scintillation counter, and compared to a 100% activity control. ATP concentrations within 15 μM of the apparent Km for ATP were chosen since an ATP concentration near the Km may allow for the kinases to have the same relative amount of phosphorylation activity. The individual conditions for each radiometric assay are as follows.
The reaction was initiated by adding the MgATP. After incubation for 40 minutes at room temperature, 5 μl of the incubation mix was used to initiate the p38MAPK radiometric assay described above.
IC50 values for inhibitor peptides were determined using Millipore's IC50 Profiler Express service. The IC50 value was estimated from a 10-point curve of one-half log dilutions. […]

[1] = tested on: immortalized human pleural mesothelial cells (ATCC CRL-9444); experiment: TNF-α-induced IL-6 expression in mesothelial cells (ELISA); type: cell-based
Text: In order to examine the efficacy of MMI-0100 ([…]; SEQ ID NO: 1) in inhibiting the production of inflammatory cytokines, an inflammatory response was triggered in vitro by applying TNF-α to immortalized human pleural mesothelial cells (ATCC CRL-9444). A mesothelial cell is a cell type that forms a monolayer of specialized pavement-like cells (mesothelium) that lines the body's abdominal cavities and internal organs. The primary function of this layer, the mesothelium, is to provide a slippery, non-adhesive, and protective surface. Mesothelial cells also are involved in transport of fluid and cells across the peritoneal (abdominal) cavities, antigen presentation, inflammation, tissue repair, coagulation, and tumor cell adhesion. It is well known that mesothelial cells play important role in the peritoneal inflammatory response. In response to bacterial products and macrophage-derived inflammatory cytokines (e.g., TNF-α), mesothelial cells produce Interleukin-1 (IL-1), Interleukin-6 (IL-6), and Interleukin-8 (IL-8), thus amplifying the inflammatory signals and recruiting leukocytes into the infected abdominal cavity.
Expression of inflammatory cytokines was induced by applying 1 or 10 ng/ml of TNF-α to cultured mesothelial cells. Briefly, immortalized human pleural mesothelial cells (ATCC CRL-9444) were grown in Medium199 with Earle's BSS, 0.75 mM L-glutamine (Mediatech Inc., Manassas, Va.), 1.25 g/l sodium bicarbonate (Sigma), 3.3 nM epidermal growth factor (EGF) (MBL International, Woburn, Mass.), 40 nM hydrocortisone (Sigma), 870 nM insulin (MBL International), 20 mM HEPES (Sigma), trace elements mixture B (Mediatech Inc., Waltham, Mass.), 10% fetal bovine serum (FBS) (Hyclone), and 1% penicillin/streptomycin (Mediatech Inc., Waltham, Mass.). […] Human mesothelial cells were treated with two different concentrations (1 and 10 ng/mL) of TNF-α for 2, 6, 12, and 24 hours (data not shown). […] Without TNF-α stimulation, mesothelial cells made negligible amounts of IL-6. […] In subsequent experiments designed to determine whether the MMI-0100 peptide ([…]; SEQ ID NO: 1) could reduce TNF-α induced IL-6 expression, both 1 and 10 ng/mL of TNF-α were selected as stimuli. 10 ng/mL of TNF-α is regarded as more physiologically relevant for mesothelial cells.
Prior to cytokine and/or inhibitor treatment, cells were allowed to acclimate in serum-free media consisting of only Medium 199 with Earle's BSS, 0.75 mM L-glutamine, 1.25 g/l sodium bicarbonate, 20 mM HEPES, trace elements mixture B (Mediatech Inc., Waltham, Mass.), and 1% penicillin/streptomycin (Mediatech Inc., Waltham, Mass.) for 24 hours. After the adapting period, cytokines (TNF-α and IL-1β) with or without MMI-0100 peptide or Rottlerin (Tocris Bioscience, Ellisville, Mo.; IC50=5 μM) were added to the media in order to compare the efficacy of MMI-0100 ([…]; SEQ ID NO: 1) with that of Rottlerin. Specifically, serum-starved mesothelial cells were treated with two different concentrations (1000 μM or 3000 μM) of MMI-0100 ([…] (SEQ ID NO: 1)) at three different time points (6 hours, 12 hours, and 24 hours) using two different concentrations of TNF-α (1 ng/ml or 10 ng/ml) or using 1 ng/ml of IL-1β. Average concentration of IL-6 (pg/ml per 10^5 cells) at each time was determined by cytokine-specific ELISA.

## YARAAARQARAKALARQLGVAA [MMI-0100]
MKK6
  Percent Activity, MKK6: 50%
[1]; 1 ng/mL TNF-α, MMI-0100 1000 μM or 3000 μM
  IL-6 expression: reduced IL-6 expression to the levels at or below the untreated baseline
[1]; 10 ng/mL TNF-α, 3000 μM MMI-0100, every time point (6, 12, 24 hours)
  IL-6 expression: reduced IL-6 expression to the levels of the untreated baseline
[1]; 10 ng/mL TNF-α, MMI-0100
  IL-6 expression: still effective
